Data taken from PubChem BioAssay AID330 (DTP/NCI, 2004).
Where “and” joins values, the source holds several entries; their conditions need not be identical. Equal values may be shown once. Toxic doses and inconclusive results are not listed.

Test system: P388 leukemia ip, CD2F1 mice, survival T/C
Assay: NCI In Vivo Anticancer Drug Screen. Data for tumor model P388 Leukemia (intraperitoneal) in CD2F1 (CDF1) mice
Conditions: endpoint: median survival time, higher = longer survival
Procedure, shortened: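 Mice carrying the transplanted tumor received test compound or vehicle. Survival was recorded in each group, and the value is the treated-group measurement divided by that of the vehicle-treated control group.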

[1] = dose: 50.0 mg/kg/injection, schedule: Q01DX005 (ip), vehicle: saline with Tween-80
[2] = dose: 100.0 mg/kg/injection, schedule: Q01DX005 (ip), vehicle: saline with Tween-80
[3] = dose: 200.0 mg/kg/injection, schedule: Q01DX005 (ip), vehicle: saline with Tween-80
[4] = dose: 100.0 mg/kg/injection, schedule: Q01DX009 (ip), vehicle: saline
[5] = dose: 200.0 mg/kg/injection, schedule: Q01DX009 (ip), vehicle: saline
[6] = dose: 25.0 mg/kg/injection, schedule: Q01DX009 (ip), vehicle: saline with Tween-80
[7] = dose: 50.0 mg/kg/injection, schedule: Q01DX005 (ip), vehicle: saline
[8] = dose: 100.0 mg/kg/injection, schedule: Q01DX005 (ip), vehicle: saline
[9] = dose: 200.0 mg/kg/injection, schedule: Q01DX005 (ip), vehicle: saline
[10] = dose: 12.5 mg/kg/injection, schedule: Q01DX009 (ip), vehicle: saline with Tween-80
[11] = dose: 12.5 mg/kg/injection, schedule: Q01DX009 (ip), vehicle: saline
[12] = dose: 50.0 mg/kg/injection, schedule: Q01DX009 (ip), vehicle: saline
[13] = dose: 50.0 mg/kg/injection, schedule: Q01DX005 (ip), vehicle: Klucel (hydroxypropylcellulose) (HPC)
[14] = dose: 100.0 mg/kg/injection, schedule: Q01DX005 (ip), vehicle: Klucel (hydroxypropylcellulose) (HPC)
[15] = dose: 200.0 mg/kg/injection, schedule: Q01DX005 (ip), vehicle: Klucel (hydroxypropylcellulose) (HPC)
[16] = dose: 100.0 mg/kg/injection, schedule: Q01DX009 (ip), vehicle: saline with Tween-80
[17] = dose: 200.0 mg/kg/injection, schedule: Q01DX009 (ip), vehicle: saline with Tween-80
[18] = dose: 50.0 mg/kg/injection, schedule: Q01DX009 (ip), vehicle: saline with Tween-80

CC1=CC(=O)C(O)C2(C)C1CC1OC(=O)C(O)C3(O)C4(C)OCC13C2C(O)C4O (centres undefined)
T/C (dose: 0.19 mg/kg/injection, schedule: Q01DX009 (ip), vehicle: saline + alcohol): 102 % of control | T/C (dose: 0.38 mg/kg/injection, schedule: Q01DX009 (ip), vehicle: saline + alcohol): 105 % of control | T/C (dose: 0.75 mg/kg/injection, schedule: Q01DX009 (ip), vehicle: saline + alcohol): 119 % of control | T/C (dose: 1.5 mg/kg/injection, schedule: Q01DX009 (ip), vehicle: saline + alcohol): 105 % of control and 112 % of control

COc1ccc(CC2c3cc(OC)c(OC)cc3CCN2C(C)=O)cc1OC (centres undefined)
T/C (dose: 3.0 mg/kg/injection, schedule: Q01DX005 (ip), vehicle: saline with Tween-80): 99 % of control | T/C (dose: 6.0 mg/kg/injection, schedule: Q01DX005 (ip), vehicle: saline with Tween-80): 102 % of control | T/C (dose: 12.0 mg/kg/injection, schedule: Q01DX005 (ip), vehicle: saline with Tween-80): 95 % of control

C/C(=N/OC1=CC(=O)CC(C)(C)C1)c1ccccc1
T/C [1]: 104 % of control | T/C [2]: 104 % of control | T/C [3]: 99 % of control

O=Cc1cccc(O)c1O
T/C [4]: 103 % of control and 110 % of control | T/C [5]: 115 % of control

CCOC1OCN(C(C)C)CC1(C)C (centres undefined)
T/C [6]: 98 % of control

COc1ccc2c(c1)CCC(c1nc3ccc(C)cc3[nH]c1=O)C2=O (centres undefined)
T/C (dose: 60.0 mg/kg/injection, schedule: Q01DX005 (ip), vehicle: saline with Tween-80): 103 % of control | T/C (dose: 120.0 mg/kg/injection, schedule: Q01DX005 (ip), vehicle: saline with Tween-80): 108 % of control

c1ccc(CN2COC3CCCCC32)cc1 (centres undefined)
T/C (dose: 25.0 mg/kg/injection, schedule: Q01DX005 (ip), vehicle: saline): 107 % of control and 108 % of control | T/C [7]: 101 % of control and 105 % of control and 119 % of control | T/C [8]: 101 % of control and 107 % of control and 121 % of control | T/C [9]: 103 % of control and 105 % of control

Cc1[nH]nc2c1NC(=O)OC2
T/C [1]: 104 % of control | T/C [2]: 104 % of control | T/C [3]: 106 % of control

c1ccc(-c2nc3ccccc3nc2-c2ccc(Sc3ccc(-c4nc5ccccc5nc4-c4ccccc4)cc3)cc2)cc1
T/C (dose: 6.25 mg/kg/injection, schedule: Q01DX009 (ip), vehicle: saline with Tween-80): 96 % of control | T/C [10]: 93 % of control | T/C [6]: 90 % of control

CCCCCCCCCCCCC[N+]1([O-])CCCCC1
T/C [11]: 95 % of control | T/C (dose: 25.0 mg/kg/injection, schedule: Q01DX009 (ip), vehicle: saline): 92 % of control | T/C [12]: 87 % of control and 89 % of control

COC1=Cc2c(oc3c(C(C)(C)C)cc(OC)cc23)OC(C(C)(C)C)=C1
T/C [12]: 104 % of control | T/C [4]: 100 % of control | T/C [5]: 100 % of control

COc1cccc2c1C(=O)c1c(O)c3c(c(O)c1C2=O)C[C@@](O)(C(C)=O)C[C@@H]3OC1CC(N(C)Cc2ccccc2)C(O)C(C)O1 (some centres undefined)
T/C (dose: 3.13 mg/kg/injection, schedule: Q04DX003 (ip), vehicle: distilled water + Tween-80): 111 % of control | T/C (dose: 6.25 mg/kg/injection, schedule: Q04DX003 (ip), vehicle: distilled water + Tween-80): 101 % of control | T/C (dose: 12.5 mg/kg/injection, schedule: Q04DX003 (ip), vehicle: distilled water + Tween-80): 118 % of control | T/C (dose: 25.0 mg/kg/injection, schedule: Q04DX003 (ip), vehicle: distilled water + Tween-80): 172 % of control

COc1ccccc1-n1c(Cc2cccc3ccccc23)n[nH]c1=S
T/C [13]: 99 % of control | T/C [14]: 100 % of control | T/C [15]: 99 % of control

O=[N+]([O-])c1ccc2c3c(ccc([N+](=O)[O-])c13)CC2
T/C (dose: 25.0 mg/kg/injection, schedule: Q01DX009 (ip), vehicle: Klucel (hydroxypropylcellulose) (HPC)): 93 % of control | T/C (dose: 50.0 mg/kg/injection, schedule: Q01DX009 (ip), vehicle: Klucel (hydroxypropylcellulose) (HPC)): 93 % of control | T/C (dose: 100.0 mg/kg/injection, schedule: Q01DX009 (ip), vehicle: Klucel (hydroxypropylcellulose) (HPC)): 91 % of control

CC(C)SC(=S)Nc1ccc(Cl)c([N+](=O)[O-])c1
T/C [12]: 99 % of control | T/C [4]: 93 % of control | T/C [5]: 103 % of control

COc1cc(Br)c(C(=O)N2CCc3cc([N+](=O)[O-])ccc32)cc1OC
T/C (dose: 25.0 mg/kg/injection, schedule: Q01DX009 (ip), vehicle: other): 101 % of control | T/C (dose: 50.0 mg/kg/injection, schedule: Q01DX009 (ip), vehicle: other): 93 % of control | T/C (dose: 100.0 mg/kg/injection, schedule: Q01DX009 (ip), vehicle: other): 89 % of control | T/C (dose: 200.0 mg/kg/injection, schedule: Q01DX009 (ip), vehicle: other): 87 % of control

CC(c1ccc(O)cc1)c1cc2c(cc1OCCO)OCO2 (centres undefined)
T/C [1]: 94 % of control | T/C [2]: 91 % of control | T/C [3]: 92 % of control

CC(SSc1ccc(C(C)(C)C)cc1)c1ccccc1 (centres undefined)
T/C [13]: 96 % of control | T/C [14]: 104 % of control | T/C [15]: 109 % of control

O=C1CSc2ccccc2-n2cccc21
T/C (dose: 60.0 mg/kg/injection, schedule: Q01DX005 (ip), vehicle: Klucel (hydroxypropylcellulose) (HPC)): 89 % of control | T/C (dose: 120.0 mg/kg/injection, schedule: Q01DX005 (ip), vehicle: Klucel (hydroxypropylcellulose) (HPC)): 109 % of control | T/C (dose: 240.0 mg/kg/injection, schedule: Q01DX005 (ip), vehicle: Klucel (hydroxypropylcellulose) (HPC)): 101 % of control

C(COCC1CO1)OCC1CO1 (centres undefined)
T/C [11]: 120 % of control | T/C [12]: 150 % of control

NC1=C(O)C(=O)C(c2c[nH]c3ccc(OCc4ccccc4)cc23)O1 (centres undefined)
T/C (dose: 7.5 mg/kg/injection, schedule: Q01DX005 (ip), vehicle: Klucel (hydroxypropylcellulose) (HPC)): 93 % of control | T/C (dose: 15.0 mg/kg/injection, schedule: Q01DX005 (ip), vehicle: Klucel (hydroxypropylcellulose) (HPC)): 101 % of control | T/C (dose: 30.0 mg/kg/injection, schedule: Q01DX005 (ip), vehicle: Klucel (hydroxypropylcellulose) (HPC)): 102 % of control and 96 % of control

CN(CCCN(C)N=Nc1ccccc1C(=O)O)N=Nc1ccccc1C(=O)O
T/C [16]: 86 % of control | T/C [17]: 90 % of control

CSCCC1NC(=O)C(C(C)=Nc2ccccc2)=C1O (centres undefined)
T/C [18]: 94 % of control | T/C [16]: 92 % of control | T/C [17]: 98 % of control | T/C (dose: 400.0 mg/kg/injection, schedule: Q01DX009 (ip), vehicle: saline with Tween-80): 99 % of control

CCN(CC)C(=O)C1CCCCN1Cc1c[nH]c2ccccc12 (centres undefined)
T/C [10]: 104 % of control | T/C [6]: 109 % of control | T/C [18]: 101 % of control | T/C [16]: 99 % of control

c1cc(-c2cc3ccc(C4=NCCN4)cc3[nH]2)ccc1C1=NCCN1
T/C (dose: 6.25 mg/kg/injection, schedule: Q04DX003 (ip), vehicle: saline): 116 % of control | T/C (dose: 12.5 mg/kg/injection, schedule: Q04DX003 (ip), vehicle: saline): 118 % of control | T/C (dose: 50.0 mg/kg/injection, schedule: Q04DX003 (ip), vehicle: saline): 154 % of control and 171 % of control and 172 % of control

Cc1ccc(C)c2c1C(O)(C#Cc1ccccc1)c1c(C)ccc(C)c1C2(O)C#Cc1ccccc1 (centres undefined)
T/C (dose: 25.0 mg/kg/injection, schedule: Q01DX005 (ip), vehicle: Klucel (hydroxypropylcellulose) (HPC)): 90 % of control | T/C [13]: 93 % of control | T/C [14]: 86 % of control

O=C1c2ccccc2C(=O)c2cscc21
T/C [10]: 100 % of control | T/C [6]: 97 % of control | T/C [18]: 97 % of control | T/C [16]: 98 % of control

O=C(/C=C/c1c(Cl)cccc1Cl)c1ccc(Cl)cc1
T/C (dose: 100.0 mg/kg/injection, schedule: Q04DX003 (ip), vehicle: saline with Tween-80): 100 % of control | T/C (dose: 200.0 mg/kg/injection, schedule: Q04DX003 (ip), vehicle: saline with Tween-80): 100 % of control | T/C (dose: 400.0 mg/kg/injection, schedule: Q04DX003 (ip), vehicle: saline with Tween-80): 109 % of control

CS(=O)CCC(N)P(=O)(O)O (centres undefined)
T/C [7]: 92 % of control | T/C [8]: 99 % of control | T/C [9]: 99 % of control

CCOC(=O)CSc1sc(C(=O)OCC)c(N)c1C#N
T/C [18]: 87 % of control
